Test results taken from patent US9340774B2, “Tumor-initiating cells and methods for using same” (Wyeth LLC, priority 2009, dated 2016).

Assays:
60274 xenografts = assay: Tumor regression of NSCLC primary implant xenografts, line 60274; assay type: in vivo, mice; settings: maximum tolerable dose
Experimental: Nude (for 37622) or nod-scid (for 60274) mice were injected subcutaneously between the shoulder blades with fragments of low-passage primary implants. When the tumors reached the mass of 0.2 to 0.5 g, the tumors were staged to ensure uniformity of the tumor mass between various treatment groups prior to the administration of therapy. Anti-5T4 huH8 antibody and anti-CD33 p67.6 antibody were conjugated to calicheamicin via an amide linker as described (Hamann et al., Bioconug. Chem., 2002, 13: 40-46). The “amide” linker restricts the release of calicheamicin to cells that internalize the antibody-drug conjugate (Hamann et al., Bioconug. Chem., 2002, 13: 40-46). […] Tumors were measured at least once a week and their mass was as volume=0.5×(tumor width^2)(tumor length). Mean tumor volume (±SEM) for each treatment group was calculated and compared to the vehicle-treated group for statistical significance using a one-sided t-test, with the error term for the t-test based on the pooled variance across all treatment groups. Tumor values for each treatment group were recorded up to 120 days after the initiation of treatment or until either tumor-bearing mice died or the tumors grew to 15% of the body weight at which time these mice were euthanized according to institutional regulations.

[1] = test system: H460T CD24−/lowCD44+ and CD24highCD44+ cells; assay: Differential drug response of sorted H460T populations; assay type: cell-based, human
Description: H460 cells were obtained from the American Type Culture Collection (ATCC) in Manassas, Va., United States of America. The H460 cell line was derived from the pleural fluid of a patient with large cell cancer of the lung (Gazdar et al., Science, 1989, 246: 491494). HCC2429 cells were obtained from J. Minna. See Haruki et al., J. Med. Genet., 2005, 42(7):558-64. […] Higher-passage cells are referred to as H460T to distinguish them from the low-passage H460 that were originally obtained from ATCC. All cells were incubated at 37° Celsius with 5.0% carbon dioxide (CO2). H460T cells were cultured in RPMI-1640 (GIBCO®, available from Invitrogen of Carlsbad, Calif., USA). See Moore et al., JAMA, 1967, 199: 519-524, 10% fetal bovine serum (FBS, GIBCO®, available from Invitrogen of Carlsbad, Calif., USA), 2 mM additional glutamine, 100 IU/mipenicillin, 100 μg/ml streptomycin, 1 mM sodium pyruvate, 0.1% sodium bicarbonate, 045% additional glucose, and 10 mM 4-(2-hydroxyethyl)-1-piperazineethanesulfonic acid (HEPES). HCC2429 cells were cultured in RPMI-1640, 10% FBS, 2 mM additional glutamine, 100 IU/ml penicillin, 100 μg/ml streptomycin. Karyotyping and short tandem repeat (STR) analysis of H460T confirmed its H460 origin, however the Y chromosome was absent in H460T cells and present in most H460 cells. […]

5T4 = assay: Anti-5T4 immunoblot of sorted cells treated with all-trans retinoic acid; assay type: cell-based, human; settings: CD24−/lowCD44+ cells; 10 μM; 72 hours; 0.5% FBS medium; FIG. 6B
Experimental: To determine 5T4 expression under conditions of growth and differentiation, cells were harvested at several time points, and protein extracts were subjected to immunoblot analysis. Cells were washed with PBS and lysed in 0.5% v/v NP40 in 25 mM Tris-buffered saline pH 7.4 (TBS). After protein estimation (MICROBCA™ Protein Assay Kit, Pierce of Rockford, Ill., USA), the lysates were mixed with non-reducing Laemmli sample buffer (Biorad of Hercules, Calif., USA) and 10 μg samples were loaded in each well of a non-reducing 4-20% polyacrylamide gradient gel (NOVEX®, available from Invitrogen of Carlsbad, Calif., USA). The samples were run for two to three hours at 125 volts and transferred to a PVDF (polyvinylidene fluoride) membrane by means of a Novex® electrophoresis transfer system. The membrane was blocked overnight with 5% milk in Tris-buffered saline Tween-20 (TBST) with 1% goat serum, probed with anti-5T4 antibody H8 at 1 μg/ml in 5% milk in TBST, washed and probed with HRP conjugated goat anti-mulgG at 1:5,000 dilution. The ECL detection system was used (Amersham of Burlington, Mass., USA).
To further assess 5T4 expression in tumor cell lines, sorted cells were treated with all-trans retinoic acid to induce differentiation and then subjected to immunoblot analysis. […]

[2] = test system: H460T CD24−/lowCD44+ and CD24highCD44+ cells; assay: Four-day MTS cell viability assay on sorted cells; assay type: cell-based, human; settings: 96 hours of drug exposure, FIG. 10A
Experimental: The CD24^−/lowCD44^+ population was more sensitive to an anti-5T4 antibody-drug conjugate than the CD24^highCD44^+ population in an cell viability assay and a colony growth assay. For each assay, antibody-calicheamicin AcBut-linked (AcBut-AcBut-[4-(4-acetylphenoxy) butanoic acid]) conjugates were prepared as described (Hamann et al., Bioconjug. Chem., 2002, 13: 47-58). The effect of anti-5T4 huH8 antibody-drug conjugate or anti-CD22 antibody-drug conjugate on sorted cells was assessed using a cellular viability indicator ((3-(4,5-dimethylthiazol-2-yl)-5([…])-2-(4-sulfophenyl)-2H-tetrazolium (MTS) (Promega of Madison, Wis., USA) to determine the number of surviving cells following exposure to the drug treatment. Cells were sorted 18 hours prior to start of assay. Cells were seeded in 96-well microtiter plates at a density of 10000 cells per well and exposed to various concentrations of the drug. Following determination of the number of viable cells surviving 96 hours of drug exposure, the IC50 of each treatment was calculated based on the logistic regression parameters derived from the dose-response curves. IC50 values were calculated by logistic non-linear regression and are reported as the calicheamicin dimethyl hydrazide (CalichDMH) concentration from each treatment group that causes 50% loss of cell viability.

[3] = test system: H460T CD24−/lowCD44+ and CD24highCD44+ cells; assay: Colony formation (clonogenic) assay on sorted cells; assay type: cell-based, human; settings: 72 hours drug exposure, 200 cells replated, colonies after 8 days; FIG. 10B
Experimental: To perform a colony formation assay, cells were seeded in 24 well plate at a density of 5,000 cells per well. Twenty-four hours after seeding the cells were exposed to various concentrations of (0.000097, 0.000390, 0.00156, 0.00625, 0.025, 0.1, 0.4 ng calicheamicin equivalents/ml) of anti-5T4 H8-AcBut conjugate, anti-CD22 AcBut conjugate, or calicheamicin alone. Seventy-two hours after the drug exposure, cells were trypsinized, counted and 200 cells were plated in 6 well plates. After 8 days, the colonies were fixed and stained with methylene blue. The number of colonies per well was counted using a Stereoscope.

N.N.[Cl][Pt][Cl] [cisplatin]
tumor size of 60274 xenografts (60274 xenografts; FIG. 12C): reduced tumor size transiently | regrowth of 60274 tumors (60274 xenografts; after completion of the dosing regimen): quickly regrew

CC[C@@]1(O)C(=O)OCc2c1cc1n(c2=O)Cc2cc3ccccc3nc2-1 [camptothecin]
response of CD24−/lowCD44+ versus CD24highCD44+ populations [1]: responded equally

CC1=C(/C=C/C(C)=C/C=C/C(C)=C/C(=O)O)C(C)(C)CCC1 [all-trans retinoic acid]
5T4 expression (immunoblot) (5T4): dramatically reduced

O=c1[nH]cc(F)c(=O)[nH]1 [5-fluoruracil]
response of CD24−/lowCD44+ versus CD24highCD44+ populations [1]: responded equally

calicheamicin
sensitivity of CD24−/lowCD44+ cells versus CD24highCD44+ cells (IC50 as CalichDMH concentration) [2]: No difference between the two populations | sensitivity of CD24−/lowCD44+ cells versus CD24highCD44+ cells (number of colonies) [3]: No difference between the two populations
